According to the NIST ThermoML archive (doi:10.1016/j.fluid.2010.05.019):

Experiments:
[1] = wn = mass fraction of the nth substance listed; settings: 298.15 K, 101 kPa, Liquid, Alternating current cell with electrodes
[2] = 298.15 K, Liquid; for electrical conductivity: 101 kPa, Alternating current cell with electrodes

C1CC[NH2+]C1.O=[N+]([O-])[O-] [pyrrolidinium nitrate] + O
[1]
Settings	electrical conductivity [S/m]
w2 = 0	5.01
w2 = 0.0476	6.79
w2 = 0.0908	7.74
w2 = 0.1665	9.11
w2 = 0.1999	9.7
w2 = 0.2591	10.4
w2 = 0.3101	10.9
w2 = 0.3546	11.1
w2 = 0.3937	11.3
w2 = 0.4592	11.2
w2 = 0.4998	10.8
w2 = 0.5553	10.9
w2 = 0.5998	10.4
w2 = 0.655	9.97
w2 = 0.7013	9.42
w2 = 0.7999	7.86
w2 = 0.8504	6.1
w2 = 0.9074	4.5
w2 = 0.96	2.5
w2 = 0.9987	0.122

O [water] + CCCC(C)[NH3+].O=C[O-]
Settings	electrical conductivity [S/m]
[1], w1 = 1	0.0001

C1CC[NH2+]C1.CCCCCC(=O)[O-] [pyrrolidinium hexanoate] + O
[1]
Settings	electrical conductivity [S/m]
w2 = 0	0.204
w2 = 0.0476	0.568
w2 = 0.0909	0.95
w2 = 0.1489	1.54
w2 = 0.1667	1.73
w2 = 0.1837	1.91
w2 = 0.2	2.01
w2 = 0.2308	2.21
w2 = 0.2593	2.4
w2 = 0.2727	2.48
w2 = 0.2982	2.61
w2 = 0.3103	2.65
w2 = 0.3333	2.76
w2 = 0.3548	2.86
w2 = 0.3846	2.91
w2 = 0.403	2.91
w2 = 0.4521	2.92
w2 = 0.5	2.89
w2 = 0.5294	2.85
w2 = 0.5506	2.81
w2 = 0.601	2.53
w2 = 0.7015	1.96
w2 = 0.8004	1.21
w2 = 0.9002	0.551

C1CC[NH2+]C1.CC(=O)[O-] [pyrrolidinium acetate] + O
[1]
Settings	electrical conductivity [S/m]
w2 = 0	0.594
w2 = 0.0474	0.685
w2 = 0.0906	0.716
w2 = 0.1661	1.04
w2 = 0.1994	1.11
w2 = 0.2585	1.53
w2 = 0.3095	1.93
w2 = 0.3539	2.32
w2 = 0.393	2.64
w2 = 0.4585	3.24
w2 = 0.499	3.52
w2 = 0.5546	3.92
w2 = 0.599	4.09
w2 = 0.6543	4.3
w2 = 0.7007	4.37
w2 = 0.7554	4.43
w2 = 0.8033	4.23
w2 = 0.8328	4.02

C1CC[NH2+]C1.O=C[O-] [pyrrolidinium formate]
Settings	electrical conductivity [S/m]
[2]	3.29

Settings	viscosity [mPa·s]
[2], 101.33 kPa, Cone and plate viscometry	2.5

C1CC[NH2+]C1.CCCCCCCCC(=O)[O-] [pyrrolidinium nonanoate] + O
[1]
Settings	electrical conductivity [S/m]
w2 = 0	0.064
w2 = 0.0476	0.073
w2 = 0.0909	0.122
w2 = 0.1667	0.295
w2 = 0.2	0.392
w2 = 0.2593	0.579
w2 = 0.3103	0.754
w2 = 0.3548	0.915
w2 = 0.3939	1.07
w2 = 0.4595	1.29
w2 = 0.5	1.44
w2 = 0.5556	1.61
w2 = 0.5833	1.68
w2 = 0.6	1.73
w2 = 0.6154	1.76
w2 = 0.6296	1.79
w2 = 0.6429	1.81
w2 = 0.6552	1.84
w2 = 0.6667	1.85
w2 = 0.7143	1.87
w2 = 0.8065	1.63
w2 = 0.902	1.08

Cc1ccc[n+](C)c1C.O=C[O-] [1,2,3-trimethylpyridinium formate] + O
[1]
Settings	electrical conductivity [S/m]
w2 = 0	0.68
w2 = 0.0476	0.837
w2 = 0.0909	0.963
w2 = 0.1666	1.33
w2 = 0.1999	1.48
w2 = 0.2592	1.88
w2 = 0.3103	2.31
w2 = 0.3547	2.69
w2 = 0.4117	3.23
w2 = 0.4594	3.62
w2 = 0.4999	3.95
w2 = 0.5555	4.37
w2 = 0.5999	4.65
w2 = 0.6551	4.74
w2 = 0.7014	4.75
w2 = 0.7499	4.75
w2 = 0.7999	4.51
w2 = 0.8571	3.85
w2 = 0.9	3.13
w2 = 0.95	1.93

C1CC[NH2+]C1.CCCCCCCC(=O)[O-] [pyrrolidinium octanoate] + O
[1]
Settings	electrical conductivity [S/m]
w2 = 0	0.08
w2 = 0.0475	0.223
w2 = 0.0908	0.347
w2 = 0.1664	0.635
w2 = 0.1997	0.795
w2 = 0.2589	1.06
w2 = 0.31	1.31
w2 = 0.3544	1.58
w2 = 0.3935	1.7
w2 = 0.459	1.93
w2 = 0.4996	2.06
w2 = 0.5551	2.18
w2 = 0.5996	2.23
w2 = 0.6292	2.23
w2 = 0.6548	2.22
w2 = 0.7011	2.17
w2 = 0.7558	2.03
w2 = 0.7724	1.97
w2 = 0.8037	1.83
w2 = 0.8212	1.68

C1CC[NH2+]C1.CCCCCCC(=O)[O-] [pyrrolidinium heptanoate]
Settings	electrical conductivity [S/m]
[2]	0.186

Settings	mass density [kg/m3]
[2], 101.33 kPa, Pycnometric method	972.1

O [water] + C1CC[NH2+]C1.CCCCCCCC(=O)[O-]
Settings	electrical conductivity [S/m]
[1], w1 = 1	0.0001

O [water] + Cc1ccc[n+](C)c1C.O=C[O-]
Settings	electrical conductivity [S/m]
[1], w1 = 1	0.0001

Cc1cccc[n+]1C.O=C[O-] [1,2-dimethylpyridinium formate] + O
[1]
Settings	electrical conductivity [S/m]
w2 = 0	1.04
w2 = 0.051	1.37
w2 = 0.0908	1.64
w2 = 0.1665	2.21
w2 = 0.2854	3.27
w2 = 0.333	3.77
w2 = 0.4114	4.52
w2 = 0.4441	4.74
w2 = 0.4997	5.26
w2 = 0.5451	5.56
w2 = 0.6151	5.98
w2 = 0.6549	6.16
w2 = 0.7056	6.23
w2 = 0.7617	6
w2 = 0.7998	5.68
w2 = 0.857	4.85
w2 = 0.8748	4.51
w2 = 0.8888	4.21
w2 = 0.8999	3.93
w2 = 0.909	3.7
